Source: article PMC11280343, “Rubus urticifolius Compounds with Antioxidant Activity, and Inhibition Potential against Tyrosinase, Melanin, Hyaluronidase, Elastase, and Collagenase” (Pharmaceuticals, 2024)
Like-named read-outs stand apart in the source and are kept apart here.

Legend:
[1] = system: NF-κB; assay: NF-κB inhibition assay (LPS-stimulated), WS1; type: cell-based; settings: Homo sapiens, 72 h, read-out: NF-κB Inhibition at 72 h IC50 ± SEM
Experimental: (§1) To determine the anti-inflammatory activity of the samples (at the same concentration as in the viability assay), NF-κB inhibition assay was used, following the protocol carried out by Apaza Ticona et al.. Cells were cultured in 96-well plates (1 × 10^6 cells/well). […] Absorbance was measured at 450 nm using a microplate reader.

[2] = system: collagenase; assay: Collagenase inhibitory assay; type: biochemical; settings: for Collagenase Inhibition (%): inhibition percentage 'at an IC50', concentration not otherwise stated; for IC50: read-out: Anti-Collagenase IC50
Experimental: A fixed weight of 1 mg of azo dye-impregnated collagen was measured in the test tubes. Subsequently, 800 μL of 0.1 M Tris-HCl (pH 7) and 100 μL of the samples at the same concentrations used as in the viability assay were added to each test tube. Next, 100 μL of collagenase (200 units/mL) was immediately mixed into the mixture and the tubes were incubated at 43 °C for 1 h. After incubation, the test tubes were centrifuged at 3000 rpm for 10 min. The supernatant from each tube was transferred into 96-well plates and the absorbance of each supernatant was measured at 550 nm using a microplate reader.

[3] = target: T1, tyrosinase in HMCB cells (Homo sapiens, UniProt P14679); assay: Cellular tyrosinase assay (L-DOPA as substrate); type: cell-based
T1 construct: endogenous in cells; host or cells: HMCB cells
T1 sequence (P14679 19-529): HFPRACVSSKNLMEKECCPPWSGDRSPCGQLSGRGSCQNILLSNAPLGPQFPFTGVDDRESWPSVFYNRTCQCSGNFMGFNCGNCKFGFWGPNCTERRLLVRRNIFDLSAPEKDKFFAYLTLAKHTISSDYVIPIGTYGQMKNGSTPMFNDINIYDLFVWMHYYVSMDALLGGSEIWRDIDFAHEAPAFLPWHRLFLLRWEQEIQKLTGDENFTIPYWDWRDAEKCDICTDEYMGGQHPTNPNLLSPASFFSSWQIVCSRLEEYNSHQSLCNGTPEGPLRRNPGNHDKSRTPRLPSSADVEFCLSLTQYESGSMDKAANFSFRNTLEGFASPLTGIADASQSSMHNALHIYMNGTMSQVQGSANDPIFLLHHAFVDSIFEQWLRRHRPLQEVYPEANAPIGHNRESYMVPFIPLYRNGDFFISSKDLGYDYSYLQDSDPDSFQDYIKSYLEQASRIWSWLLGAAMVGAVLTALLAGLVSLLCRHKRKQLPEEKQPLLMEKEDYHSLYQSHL
Experimental: as §1, with “anti-tyrosinase” for “anti-inflammatory”, “tyrosinase” for “NF-κB”, “HMCB cells” for “Cells”, “475” for “450”

[4] = system: melanin production in HMCB cells; assay: Melanin content assay; type: cell-based; settings: Homo sapiens, 12 h
Experimental: as §1, with “anti-melanogenic” for “anti-inflammatory”, “melanin” for “NF-κB”, “HMCB cells” for “Cells”, “405” for “450”

[5] = system: Nrf2; assay: Nrf2 activation assay, HEK001; type: cell-based
Experimental: as §1, with “antioxidant response” for “anti-inflammatory activity”, “Nrf2 activation” for “NF-κB inhibition”, “540” for “450”

[6] = system: NF-κB; assay: NF-κB inhibition assay (LPS-stimulated), HEK001; type: cell-based; settings: Homo sapiens, read-out: NF-κB Inhibition at 72 h IC50 ± SEM
Experimental: as §1

[7] = NR viability assay, THP-1; type: cell-based, Homo sapiens; settings: human
Experimental: The HEK001 (Homo sapiens cutaneous keratinocyte, CCL-2404), WS1 (Homo sapiens cutaneous fibroblast, CRL-1502), HMCB (Homo sapiens cutaneous melanoma, CRL-9607), and THP-1 (Homo sapiens peripheral blood monocyte, TIB-202) cell lines used in this study were obtained from the American Type Culture Collection (ATCC, Manassas, VA, USA). Cultivated in a Roswell Park Memorial Institute (RPMI) 1640 medium (RPMI 1640 Merck, Cat. No. R7755, New York, NY, USA) supplemented with 2 mM L-glutamine (≥99% Merck, Cat. No. 56-85-9), 10% fetal bovine serum (FBS Merck, Cat. No. TMS-016, St. Louis, MO, USA), and 10,000 units of penicillin and 10 mg streptomycin/mL (Merck, Cat. No. P4333, St. Louis, MO, USA) in culture flasks, the cells were maintained in an incubator under normoxic conditions (20–21% O2) and a humidified atmosphere (5% CO2 at 37 °C).
Mother solutions of samples (extracts, fractions, and compounds) were prepared at a concentration of […] using dimethyl sulfoxide (DMSO ≥ 99.9% Merck, Cat. No. 67-68-5, St. Louis, MO, USA) as the solvent. From these mother solutions, dilutions were prepared at concentrations ranging from 100 to 0.20 μg/mL or μM in culture medium containing 0.5% DMSO. Additionally, a negative control group consisting solely of culture medium with 0.5% DMSO was included to assess its potential cytotoxic effect on the cells.
Cell viability was evaluated using a colorimetric assay in 96-well plates, employing 3-amino-7-dimethylamino-2-methylphenazine hydrochloride salt reagent (NR, Merck, Cat. No. 553-24-2, St. Louis, MO, USA).
HEK001, WS1, HMCB, and THP-1 cell lines were cultured in 96-well plates at 37 °C with 5% CO2 until > 90% confluency was achieved (1 × 10^6 cells/well). Subsequently, the cultures were treated with sample dilutions (100–0.20 μg/mL or μM) for 72 h at 37 °C with 5% CO2 in phenol red-free RPMI. The supernatant was then discarded and the cells were washed with phosphate-buffered saline (PBS) before being incubated with […] NR (50 μg/mL; 173 μM) for 3 h at 37 °C with 5% CO2. NR labelling was performed after DMSO treatment. After incubation, the labelled sample dilutions were rapidly washed with a fixative solution composed of 1% calcium chloride (CaCl2 Merck, Cat. No. 10043-52-4, St. Louis, MO, USA) and 0.5% formaldehyde solution (≥36.0% in H2O Merck, Cat. No. 50-00-0, St. Louis, MO, USA), then diluted with 100 μL of the NR extraction solution. Finally, the plates were read at 540 nm using a microplate reader (Anthos 2020, version 2.0.5, Biochrom Ltd., Cambridge, UK).

[8] = HMCB cells, L-DOPA as substrate, 12 h, read-out: Tyrosinase inhibitory activity IC50
[9] = HMCB cells, read-out: Inhibitory activity of melanin production IC50
[10] = Homo sapiens, HEK001, 72 h; read-out: Activation of Nrf2 production EC50

| SMILES | IC50 ([1]; WS1, LPS-stimulated) [µM] | Collagenase Inhibition (%) [2] [%] | IC50 [2] [µM] | IC50 [3, 8] [µM] | IC50 [4, 9] [µM] | EC50 [5, 10] [µM] | IC50 ([6]; HEK001, LPS-stimulated, 72 h) [µM] | CC50 at 72 h ([7]; THP-1 cells (peripheral blood monocytes), THP-1, NR assay, 72 h, read-out: Viability CC50) [µM] | CC50 at 72 h ([7]; Viability CC50) [µM] | IC50 [1] [µM] | IC50 [3] [µM] | IC50 ([4]; HMCB, read-out: Inhibitory activity of melanin production IC50, HMCB cells, 12 h) [µM] | EC50 ([5]; Homo sapiens, HEK001, 72 h, read-out: Activation of Nrf2 production EC50) [µM] | IC50 ([6]; HEK001, 72 h) [µM] | CC50 at 72 h ([7]; THP-1, NR assay, 72 h, read-out: Viability CC50) [µM] |
| --- | --- | --- | --- | --- | --- | --- | --- | --- | --- | --- | --- | --- | --- | --- | --- |
| CNC(=O)c1ccccc1NC(=O)/C=C/c1ccc(OC)c(OC)c1 [Compound 1, (E)-2-(3-(3,4-dimethoxyphenyl)acrylamido)-N-methylbenzamide] | 11 ± 0.67 | 62.24 ± 1.42 | 76.6 ± 1.31 | 14.2 | 22.2 | 0.202 | 11.2 ± 0.23 | 80 | – | – | – | – | – | – | – |
| O=C(O)c1cc(O)c2ccccc2n1 [Compound 2, 4-hydroxyquinoline-2-carboxylic acid] | 32.7 ± 0.51 | 24.87 ± 1.34 | 152 ± 3.73 | 33.8 | 44.7 | 0.32 | 35.42 ± 0.12 | – | 100 | – | – | – | – | – | – |
| N#C/C(=C\c1ccc(O)cc1)C(=O)O [Compound 3, (E)-2-cyano-3-(4-hydroxyphenyl)acrylic acid] | – | 7.73 ± 1.21 | 187 ± 2.61 | – | – | – | – | – | – | 53.21 ± 0.23 | 51.5 | 71.1 | 0.951 | 55.97 ± 0.32 | 141 |
